Converted amounts (≈) assume the structure as drawn. Read-outs that look alike come from different tables or passages of the source. Bridge positions count the residues as written; N and C are the ends. Peptide text beside a SMILES is read from it.
Experiments:
neprylysine = neprylysine (Homo sapiens, UniProt P08473); assay: Enzymatic digestion with neprylysine analysed by LC/MS/MS; format: in vitro ADME; details: for Percentage of digestion / metabolised at 0.5 h: neprylysine; for Area under the curve in the presence of enzyme: neprylysine diluted by a tenth in water; for Area under the control curve (no enzyme): LC/MS/MS; for metabolised at 0.5 h: read-out: Percentage of digestion
Method: A so-called “control” sample without enzyme and effected in parallel was performed to establish an analytical reference for each parameter explored. The polypeptides are diluted in deoxygenated water to maintain the stability of both forms over time. Digestions were analyzed by the LC/MS/MS mass spectrometry technique. The percentage of digestion corresponds, for a given polypeptide, to the percentage of the area under the curve in the presence of enzyme relative to the area under the control curve for the same polypeptide.

physchem [1] = details: aqueous 0.9% NaCl solution
Method: Two weighings of 0.5 mg are made in a 1.5 ml micro tube for the polypeptide
The tubes are then vortexed for a few seconds and one drop of each polypeptide solution so obtained is placed on a glass slide for observation under an optical microscope.

physchem [2] = format: physicochemical
Method: In the case of the polypeptide of amino acid sequence: […] Solubility is particularly important for IT injections because there is a limitation of the injection volume, a limit which is much greater than that for peripheral injections, and a limitation in the solvents and solutions that may be used, for example. The use of a 5% glucose solution improves the solubility of the polypeptide of amino acid sequence: […] [SEQ ID NO: 58] by bringing it to around 10 mg/ml, wherein this solution remains an isotonic solution that is compatible with an IT injection.

Chain of neprylysine (P08473 whole entry): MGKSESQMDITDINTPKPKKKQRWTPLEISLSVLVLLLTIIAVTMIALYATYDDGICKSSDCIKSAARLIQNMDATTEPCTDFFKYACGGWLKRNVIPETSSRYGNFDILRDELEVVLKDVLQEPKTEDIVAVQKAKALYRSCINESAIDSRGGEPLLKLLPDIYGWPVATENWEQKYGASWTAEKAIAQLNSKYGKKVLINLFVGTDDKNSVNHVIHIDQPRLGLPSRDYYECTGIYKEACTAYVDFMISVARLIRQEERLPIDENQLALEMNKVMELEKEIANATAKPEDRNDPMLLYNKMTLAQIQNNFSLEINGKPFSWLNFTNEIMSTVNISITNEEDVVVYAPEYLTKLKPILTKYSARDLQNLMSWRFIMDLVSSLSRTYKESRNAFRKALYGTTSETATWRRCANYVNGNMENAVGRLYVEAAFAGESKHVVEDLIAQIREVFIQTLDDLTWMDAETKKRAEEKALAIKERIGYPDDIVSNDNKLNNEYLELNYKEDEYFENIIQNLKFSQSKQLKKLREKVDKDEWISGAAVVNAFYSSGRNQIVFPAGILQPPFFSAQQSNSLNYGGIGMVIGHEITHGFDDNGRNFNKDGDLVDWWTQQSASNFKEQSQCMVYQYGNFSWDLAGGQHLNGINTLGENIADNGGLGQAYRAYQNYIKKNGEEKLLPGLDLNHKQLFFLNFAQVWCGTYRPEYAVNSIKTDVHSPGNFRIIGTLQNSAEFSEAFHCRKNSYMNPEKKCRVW

| SMILES | Percentage of digestion (neprylysine; T = 0 min) | Area under the curve in the presence of enzyme (neprylysine; T = 0 min) | Area under the control curve (no enzyme) (neprylysine; T = 0 min) | Percentage of digestion (neprylysine; T = 30 min) [%] | Area under the curve in the presence of enzyme (neprylysine; T = 30 min) | Area under the control curve (no enzyme) (neprylysine; T = 30 min) | metabolised at 0.5 h (neprylysine; isolated enzyme neprilysin, T = 30 min) [%] | solubility (physchem [1]) [µg/mL] | metabolised at 0.5 h (neprylysine; isolated neprylysine enzyme, T = 30 min) [%] | solubility (physchem [2]; solubility in 5% glucose solution) [µg/mL] | solubility (physchem [2]; solubility in the physiological liquid) [µg/mL] |
| --- | --- | --- | --- | --- | --- | --- | --- | --- | --- | --- | --- |
| N=C(N)NCCC[C@@H]1NC(=O)[C@H](CO)NC(=O)[C@@H](NC(=O)[C@H](CO)NC(=O)[C@H](CO)NC(=O)[C@H](Cc2c[nH]c3ccccc23)NC(=O)CNC(=O)[C@H](CO)NC(=O)[C@@H](N)Cc2c[nH]c3ccccc23)CSSC[C@@H](C(=O)NCC(=O)O)NC(=O)[C@H](CO)NC1=O [SEQ ID NO: 2, W-S-G-W-S-S-C-S-R-S-C-G] (H-WSGWSSCSRSCG-OH; disulfide 7-11) | none | 3220000 | 3008000 | 8.5 | 3401000 | 3722000 | 8.5 |  |  |  |  |
| N=C(N)NCCC[C@H](NC(=O)[C@H](CO)NC(=O)[C@H](CS)NC(=O)[C@H](CO)NC(=O)[C@H](CO)NC(=O)[C@H](Cc1c[nH]c2ccccc12)NC(=O)CNC(=O)[C@H](CO)NC(=O)[C@@H](N)Cc1c[nH]c2ccccc12)C(=O)N[C@@H](CO)C(=O)N[C@@H](CS)C(=O)NCC(=O)O [SEQ ID NO: 58, W-S-G-W-S-S-C-S-R-S-C-G] (H-WSGWSSCSRSCG-OH; N-terminus and C-terminus assumed) | none | 797200 | 788400 | 28 | 576500 | 802800 |  | ~2000 (≈ 1540 µM) | 28 | ~10000 (≈ 7680 µM) | 1000 to 2000 (≈ 768 to 1540 µM) |
